Calls of active or inactive are those of the source. The calls are words filed in the database; no cut-off is given here.
Assays:
Oryctolagus cuniculus [1] = species: Oryctolagus cuniculus; settings: Plasma, 10 nM
Description: Inhibition of Lp-PLA2 in rabbit plasma using [3H]PAF as substrate at 10 nM incubated for 5 mins prior to substrate addition measured after 10 mins by liquid scintillation counting analysis relative to control

Mus musculus = species: Mus musculus; settings: C57, 50 mg/kg
Description: In vivo inhibition of Lp-PLA2 in C57 mouse serum using 2-thio-PAF as substrate at 50 mg/kg, po measured over 24 hrs

Oryctolagus cuniculus [2] = species: Oryctolagus cuniculus; settings: Plasma, 100 nM
Description: Inhibition of Lp-PLA2 in rabbit plasma using [3H]PAF as substrate at 100 nM incubated for 5 mins prior to substrate addition measured after 10 mins by liquid scintillation counting analysis relative to control

## CCN(CC)CCNCc1nnc(Cn2c(SCc3ccc(F)cc3)nc(=O)c3c2CCC3)n1Cc1ccc(-c2ccc(C(F)(F)F)cc2)cc1
Oryctolagus cuniculus [1]
  inhibition: 35%

## CCN(CC)CCN(C)Cc1nnc(Cn2c(SCc3ccc(F)cc3)nc(=O)c3c2CCC3)n1Cc1ccc(-c2ccc(C(F)(F)F)cc2)cc1
Mus musculus
  inhibition: Active
Oryctolagus cuniculus [1]
  inhibition: 72%

## O=c1nc(SCc2ccc(F)cc2)n(Cc2nnc(CCCN3CCCC3)n2Cc2ccc(-c3ccc(C(F)(F)F)cc3)cc2)c2c1CCC2
Oryctolagus cuniculus [1]
  inhibition: 75%
Oryctolagus cuniculus [2]
  inhibition: 97%

## CCN(CC)CCN(C)C(C)c1nnc(Cn2c(SCc3ccc(F)cc3)nc(=O)c3c2CCC3)n1Cc1ccc(-c2ccc(C(F)(F)F)cc2)cc1 (configuration not stated)
Mus musculus
  inhibition: Active
Oryctolagus cuniculus [1]
  inhibition: 76%

## CCN(CC)CCN(Cc1ccc(-c2ccc(C(F)(F)F)cc2)cc1)C(=O)Cn1c(SCc2ccc(F)cc2)nc(=O)c2c1CCC2
Oryctolagus cuniculus [1]
  inhibition: 82%
Oryctolagus cuniculus [2]
  inhibition: 99%

## CCN(CC)CCN(C)Cc1cnc(Cn2c(SCc3ccc(F)cc3)nc(=O)c3c2CCC3)n1Cc1ccc(-c2ccc(C(F)(F)F)cc2)cc1
Oryctolagus cuniculus [1]
  inhibition: 54%
Oryctolagus cuniculus [2]
  inhibition: 89%

## CN(Cc1ccccn1)Cc1nnc(Cn2c(SCc3ccc(F)cc3)nc(=O)c3c2CCC3)n1Cc1ccc(-c2ccc(C(F)(F)F)cc2)cc1
Oryctolagus cuniculus [1]
  inhibition: 36%

## CN(CCN1CCCC1)Cc1nnc(Cn2c(SCc3ccc(F)cc3)nc(=O)c3c2CCC3)n1Cc1ccc(-c2ccc(C(F)(F)F)cc2)cc1
Oryctolagus cuniculus [1]
  inhibition: 76%
Oryctolagus cuniculus [2]
  inhibition: 97%

## CN(C)[C@@H]1CCN(Cc2nnc(Cn3c(SCc4ccc(F)cc4)nc(=O)c4c3CCC4)n2Cc2ccc(-c3ccc(C(F)(F)F)cc3)cc2)C1
Oryctolagus cuniculus [1]
  inhibition: 54%

## O=c1nc(SCc2ccc(F)cc2)n(Cc2nnc(CCCN3CCCCC3)n2Cc2ccc(-c3ccc(C(F)(F)F)cc3)cc2)c2c1CCC2
Oryctolagus cuniculus [1]
  inhibition: 76%
Oryctolagus cuniculus [2]
  inhibition: 96%

## CN(CCN1CCCCC1)Cc1cnc(Cn2c(SCc3ccc(F)cc3)nc(=O)c3c2CCC3)n1Cc1ccc(-c2ccc(C(F)(F)F)cc2)cc1
Oryctolagus cuniculus [1]
  inhibition: 54%
Oryctolagus cuniculus [2]
  inhibition: 92%

## CC(C)N(CCNCc1nnc(Cn2c(SCc3ccc(F)cc3)nc(=O)c3c2CCC3)n1Cc1ccc(-c2ccc(C(F)(F)F)cc2)cc1)C(C)C
Oryctolagus cuniculus [1]
  inhibition: 41%

## O=c1nc(SCc2ccc(F)cc2)n(Cc2nnc(CNCCN3CCCCC3)n2Cc2ccc(-c3ccc(C(F)(F)F)cc3)cc2)c2c1CCC2
Oryctolagus cuniculus [1]
  inhibition: 33%

## CCN(CC)CCCc1nnc(Cn2c(SCc3ccc(F)cc3)nc(=O)c3c2CCC3)n1Cc1ccc(-c2ccc(C(F)(F)F)cc2)cc1
Mus musculus
  inhibition: inactive
Oryctolagus cuniculus [1]
  inhibition: 73%

## CN(CC(=O)O)Cc1nnc(Cn2c(SCc3ccc(F)cc3)nc(=O)c3c2CCC3)n1Cc1ccc(-c2ccc(C(F)(F)F)cc2)cc1
Oryctolagus cuniculus [1]
  inhibition: 5%
Oryctolagus cuniculus [2]
  inhibition: 74%

## CCN(CC)CCN(Cc1nnc(Cn2c(SCc3ccc(F)cc3)nc(=O)c3c2CCC3)n1Cc1ccc(-c2ccc(C(F)(F)F)cc2)cc1)C(C)C
Oryctolagus cuniculus [1]
  inhibition: 33%
Oryctolagus cuniculus [2]
  inhibition: 95%

## CN(C)CCCN(C)Cc1nnc(Cn2c(SCc3ccc(F)cc3)nc(=O)c3c2CCC3)n1Cc1ccc(-c2ccc(C(F)(F)F)cc2)cc1
Oryctolagus cuniculus [1]
  inhibition: 73%

## CCN(CC)CCCCc1nnc(Cn2c(SCc3ccc(F)cc3)nc(=O)c3c2CCC3)n1Cc1ccc(-c2ccc(C(F)(F)F)cc2)cc1
Mus musculus
  inhibition: inactive
Oryctolagus cuniculus [1]
  inhibition: 74%
Oryctolagus cuniculus [2]
  inhibition: 95%

## O=c1nc(SCc2ccc(F)cc2)n(Cc2nnc(CNCCN3CCOCC3)n2Cc2ccc(-c3ccc(C(F)(F)F)cc3)cc2)c2c1CCC2
Oryctolagus cuniculus [1]
  inhibition: 32%

## CCN(CCN(C)C)Cc1nnc(Cn2c(SCc3ccc(F)cc3)nc(=O)c3c2CCC3)n1Cc1ccc(-c2ccc(C(F)(F)F)cc2)cc1
Oryctolagus cuniculus [1]
  inhibition: 75%

## CN(C)CCN(C)Cc1nnc(Cn2c(SCc3ccc(F)cc3)nc(=O)c3c2CCC3)n1Cc1ccc(-c2ccc(C(F)(F)F)cc2)cc1
Oryctolagus cuniculus [1]
  inhibition: 77%

## CC(c1nnc(Cn2c(SCc3ccc(F)cc3)nc(=O)c3c2CCC3)n1Cc1ccc(-c2ccc(C(F)(F)F)cc2)cc1)N(C)CCCN(C)C (configuration not stated)
Oryctolagus cuniculus [1]
  inhibition: 71%

## CN(CCN1CCCCC1)Cc1nnc(Cn2c(SCc3ccc(F)cc3)nc(=O)c3c2CCC3)n1Cc1ccc(-c2ccc(C(F)(F)F)cc2)cc1
Mus musculus
  inhibition: Active
Oryctolagus cuniculus [1]
  inhibition: 75%
Oryctolagus cuniculus [2]
  inhibition: 97%

## CN(C)[C@H]1CCN(Cc2nnc(Cn3c(SCc4ccc(F)cc4)nc(=O)c4c3CCC4)n2Cc2ccc(-c3ccc(C(F)(F)F)cc3)cc2)C1
Oryctolagus cuniculus [1]
  inhibition: 46%

## COCCNCc1nnc(Cn2c(SCc3ccc(F)cc3)nc(=O)c3c2CCC3)n1Cc1ccc(-c2ccc(C(F)(F)F)cc2)cc1
Oryctolagus cuniculus [1]
  inhibition: 13%

## O=c1nc(SCc2ccc(F)cc2)n(Cc2nnc(CNCCN3CCCC3)n2Cc2ccc(-c3ccc(C(F)(F)F)cc3)cc2)c2c1CCC2
Oryctolagus cuniculus [1]
  inhibition: 55%

## CC(c1nnc(Cn2c(SCc3ccc(F)cc3)nc(=O)c3c2CCC3)n1Cc1ccc(-c2ccc(C(F)(F)F)cc2)cc1)N(C)CCN(C)C (configuration not stated)
Oryctolagus cuniculus [1]
  inhibition: 71%

Source: ChEMBL document CHEMBL2380232, “Triazole derivatives: a series of Darapladib analogues as orally active Lp-PLA2 inhibitors” (Bioorg Med Chem Lett, 2013)
